Test results reported in US8455649B2, “Insecticidal substituted azinyl derivatives” (Dow AgroSciences, LLC, priority 2007, dated 2013).

Key:
[1] = tested on: Beet Armyworm (Spodoptera exigua); assay: Insecticidal diet-surface test for beet armyworm; assay type: in vivo; settings: 120 h, second-instar larvae on treated diet, 50 μg/cm^2 on diet surface, 5 days after treatment, 8 insects per treatment, read-out: LAPHEG AVG % Mortality (50 μg/cm^2)
Procedure: (§1) The compounds identified in Table 1 were tested against beet armyworm and corn earworm as follows:
(§2) Insecticidal Test for Corn Earworm (Helicoverpa zea) and Beet Armyworm (Spodoptera exigua).
(§3) To prepare test solution, the test compound was formulated at 2000 ppm solution as 4 mg/2 mL of 9 acetone:1 tap water. 50 μL of the 2000 ppm (equivalent to 50 μg/cm^2 dose on diet surface area) test solution was pipetted upon the surface of 1 mL of lepidopteran diet (Southland Multi-Species Lepidopteran Diet) contained in each of eight wells per insect species (one well=1 replication). A second-instar corn earworm and beet armyworm was placed upon the treated diet in each well once the solvent had air-dried. Trays containing the treated diet and larvae were covered and then held in a growth chamber at 25° C., 50-55% RH, and 16 hr light:8 hr dark for 5 days. Observation were conducted 5 days after treatment and infestation. The number of dead insects of 8 per species per treatment was then determined and the results are given in Table 2 as a percent control at a dose of […].

[2] = tested on: Corn Earworm (Helicoverpa zea); assay: Insecticidal diet-surface test for corn earworm; assay type: in vivo; settings: 120 h, second-instar larvae on treated diet, 50 μg/cm^2 on diet surface, 5 days after treatment, 8 insects per treatment, read-out: HELIZE AVG % Mortality (50 μg/cm^2)
Procedure: as §1, §2, §3

| Structure (SMILES) | mortality at 50 µg/cm2 [1] | mortality at 50 µg/cm2 [2] |
| --- | --- | --- |
| CC1(COc2cc(OCC(F)(F)F)nc(NC(=O)Nc3ccc(C(F)(F)F)cc3)n2)CC1(Cl)Cl (stereo not drawn) [Compound 101] | 100% | 100% |
| Cc1cc(Br)ccc1N(C)C(=O)Nc1nc(OCC(F)(F)F)cc(OCC(F)(F)F)n1 [Compound 158] | 100% | 100% |
| CN(C(=O)Nc1ccc(OC(F)(F)F)cc1)c1nc(OCC(F)(F)F)cc(OCC(F)(F)F)n1 [Compound 10] | 100% | 0% |
| CN(C(=O)Nc1nc(OCC(F)(F)F)nc(OCC(F)(F)F)n1)c1ccc(C(F)(F)F)cc1 [Compound 118, N′-[4,6-bis(2,2,2-trifluoroethoxy)-1,3,5-triazin-2-yl]-N-(4-trifluoromethylphenyl)-N-methylurea] | 100% | 100% |
| CC(C)(C)COCN(C(=O)N(COCc1ccccc1)c1nc(OCC(F)(F)F)cc(OCC(F)(F)F)n1)c1ccc(C(F)(F)F)cc1 [Compound 51] | 100% | 0% |
| O=C(Nc1ccc(Cl)c(Cl)c1)Nc1nc(OCC(F)(F)F)cc(OCC(F)(F)F)n1 [Compound 5] | 25% | 50% |
| CCCN(C(=O)Nc1nc(OCC(F)(F)F)cc(OCC(F)(F)F)n1)c1ccc(OC(F)(F)F)cc1 [Compound 26] | 100% | 100% |
| COC(=O)CN(C(=O)Nc1nc(OCC(F)(F)F)cc(OCC(F)(F)F)n1)c1ccc(OC(F)(F)F)cc1 [Compound 28] | 100% | 100% |
| CN(C(=O)Nc1cc(OCC(F)(F)F)nc(OCC(F)(F)F)n1)c1ccc(Cl)nc1 [Compound 110] | 100% | 0% |
| CN(C(=O)Nc1nc(OCC(F)(F)F)cc(OCC(F)(F)F)n1)c1ccc(Br)c(Cl)c1 [Compound 84] | 100% | 100% |
| CN(C(=O)Nc1cc(OCC(F)(F)F)nc(OCC(F)(F)F)n1)c1ccc([N+](=O)[O-])cc1 [Compound 111] | 100% | 88% |
| CN(C(=O)Nc1nc(OCC(F)(F)F)cc(OCC(F)(F)F)n1)c1ccc(C#N)cc1 [Compound 83] | 100% | 100% |
| O=C(Nc1ccc(Br)c(F)c1)Nc1nc(OCC(F)(F)F)cc(OCC(F)(F)F)n1 [Compound 72] | 0% | 100% |
| CSc1ccc(NC(=O)Nc2nc(OCC(F)(F)F)cc(OCC(F)(F)F)n2)cc1 [Compound 57] | 0% | 100% |
| CCOc1cc(OCC(F)(F)F)nc(NC(=O)N(C)c2ccc(Br)cc2)n1 [Compound 103, N-(4-bromophenyl)-N′-[4-ethoxy-6-(2,2,2-trifluoroethoxy)-pyrimidin-2-yl]-N-methylurea] | 25% | 100% |
| O=C(Nc1ccc(C(F)(F)F)cc1)Nc1nc(OCC(F)F)cc(OCC(F)F)n1 [Compound 2] | 100% | 100% |
| CN(C(=O)Nc1nc(OCC(F)(F)F)cc(OCC(F)(F)F)n1)c1cc(F)c(Br)cc1F [Compound 182] | 100% | 100% |
| O=C(Nc1ccc(C(F)(F)F)nc1)Nc1nc(OCC(F)(F)F)c(Cl)c(OCC(F)(F)F)n1 [Compound 135] | 100% | 100% |
| CCN(C(=O)Nc1nc(OCC(F)(F)F)cc(OCC(F)(F)F)n1)c1ccc(OC(F)(F)F)cc1 [Compound 27] | 100% | 100% |
| O=C(O)CN(C(=O)Nc1nc(OCC(F)(F)F)cc(OCC(F)(F)F)n1)c1ccc(OC(F)(F)F)cc1 [Compound 32] | 100% | 100% |

| Structure (SMILES) | mortality at 50 µg/cm2 [1] | mortality at 50 µg/cm2 [2] |
| --- | --- | --- |
| O=C(Nc1ccc(OC(F)(F)F)cc1)Nc1nc(OCC(F)(F)F)cc(OCC(F)(F)F)n1 [Compound 3, N-(4-trifluoromethoxyphenyl)-N′-[4,6-(2,2,2-trifluoroethoxy)pyrimidin-2-yl]urea] | 100% | 100% |
| CN(C(=O)N(C)c1nc(OCC(F)(F)F)cc(OCC(F)(F)F)n1)c1ccc(C(F)(F)F)cc1 [Compound 12] | 100% | 100% |
| O=C(Nc1ccc(OC(F)=C(Cl)Cl)cc1)Nc1nc(OCC(F)(F)F)cc(OCC(F)(F)F)n1 [Compound 16] | 100% | 0% |
| O=C(Nc1ccc(C(F)(F)F)c(F)c1)Nc1nc(OCC(F)(F)F)cc(OCC(F)(F)F)n1 [Compound 78] | 100% | 100% |
| CN(C(=O)Nc1nc(OCC(F)(F)F)cc(OCC(F)(F)F)n1)c1ccc(I)cc1 [Compound 81] | 100% | 100% |
| O=C(Nc1ccc(Cl)cc1)Nc1nc(OCC(F)(F)F)cc(OCC(F)(F)F)n1 [Compound 20] | 100% | 100% |
| CN(C(=O)Nc1nc(OCC(F)(F)F)cc(OCC(F)(F)F)c1F)c1ccc(Br)cc1 [Compound 183, N′-[3-fluoro-4,6-bis(2,2,2-trifluoroethoxy)pyridin-2-yl]-N-methyl-N-(4-bromophenyl)urea] | 100% | 50% |
| O=C(Nc1ccc(Br)cc1)Nc1cc(C(F)(F)F)cc(OCC(F)(F)F)n1 [Compound 166] | 100% | 100% |
| O=C(Nc1ccc(C(F)(F)F)cc1)Nc1nc(OCC(F)(F)C(F)F)cc(OCC(F)(F)C(F)F)n1 [Compound 175] | 100% | 100% |
| CCOc1cc(OCC(F)(F)F)nc(NC(=O)Nc2ccc(C(F)(F)F)cc2)n1 [Compound 100] | 100% | 100% |
| O=C(Nc1cc(F)c(C(F)(F)F)c(F)c1)Nc1nc(OCC(F)(F)F)cc(OCC(F)(F)F)n1 [Compound 76] | 100% | 100% |
| CCOCN(C(=O)N(COCc1ccccc1)c1nc(OCC(F)(F)F)cc(OCC(F)(F)F)n1)c1ccc(C(F)(F)F)nc1 [Compound 88] | 100% | 100% |
| COCN(C(=O)Nc1nc(OCC(F)(F)F)cc(OCC(F)(F)F)n1)c1ccc(C(F)(F)F)cc1 [Compound 39] | 100% | 100% |
| CN(C(=S)Nc1nc(OCC(F)(F)F)cc(OCC(F)(F)F)n1)c1ccc(C(F)(F)F)nc1 [Compound 133] | 100% | 100% |
| CN(C(=O)Nc1cc(OCC(F)(F)F)nc(OCC(F)(F)F)n1)c1ccc(Br)nc1 [Compound 109] | 88% | 25% |
| CN(C(=O)Nc1cc(OCC(F)(F)F)nc(OCC(F)(F)F)n1)c1ccc(C(F)(F)F)nc1 [Compound 113] | 100% | 0% |
| N#Cc1ccc(NC(=O)Nc2nc(OCC(F)(F)F)cc(OCC(F)(F)F)n2)nc1 [Compound 127] | 0% | 100% |
| CN(C(=O)Nc1nc(OCC(F)(F)F)cc(OCC(F)(F)F)n1)c1ccc(Cl)cc1 [Compound 21] | 100% | 100% |
| O=C(Nc1ccc(Br)nc1)Nc1cc(C(F)(F)F)cc(OCC(F)(F)F)n1 [Compound 171] | 100% | 100% |
